# Test results reported in patent US12559496B2, “Imidazopyrimidines as modulators of IL-17” (Janssen Pharmaceutica NV, priority 2020, dated 2026).
# Tests used:
# [1] = target: IL-17A(FLAG-Tagged): IL-17RA(His-Tagged) (Homo sapiens, UniProt Q16552, K93Q); assay: IL-17A(FLAG-Tagged): IL-17RA(His-Tagged) Binding Disruption Eu-HTRF Assay; conditions: disruption of IL-17A/IL-17RA binding; simple average if tested more than once
# Excerpt: IL-17A(FLAG-Tagged): IL-17RA(His-Tagged) Binding Disruption Eu-HTRF Assay
# An antibody directed against the FLAG tag of IL-17A (SEQ ID NO: 1) is labeled with the HTRF donor chromophore (Europium-cryptate). IL-17A is present as a dimer that is “locked into” this quaternary structure due to the formation of loop-spanning […] disulfide bridges. The construct of IL-17RA used in the assay excludes the […] portion of the receptor and is fused to a C-terminal 10×His tag (SEQ ID NO:2). An antibody directed against the His tag of the IL-17RA chimera is labeled with the HTRF acceptor chromophore (“D2”). The fluorescence-resonance energy transfer (FRET) depends on the vicinity of the donor chromophore to the acceptor, and interruption of the binding between the IL-17A and IL-17RA causes the reduction/loss of FRET. Therefore, this assay allows to evaluate the compound effect on the binding IL-17A and IL-17RA by monitoring the fluorescence intensity of donor vs acceptor. The assay is run as described below.
# 40 nL of 2-fold serial diluted compound solution for total 22 dilution points is added into each well of a 1536-well, white, low-volume, non-binding plate (Greiner #782904), then 2 μL of FLAG tagged IL-17A at 2× final concentration (2.5 nM) in solution of PBS+0.01% Triton-X100 is added to each well. The assay plate is briefly centrifuged then incubated for 1 h at rt. A mixed solution is prepared containing 2×5 nM 10HIS×IL-17RA, 2×2.5 nM Eu-anti-FLAG (CISBIO), 2×5 nM D2-anti-HIS (CISBIO) in PBS+0.01% Triton-X100+200 mM Potassium Fluoride (Sigma 60238) and 2 μL of mix is added to each well of the assay plate. The plate is briefly centrifuged then incubated for 2 h at rt. The HTRF intensities at the wavelength of donor (620 nm) and acceptor (665 nm) are measured using BMG Pherastar. The ratio between intensities at two wavelengths is calculated and plotted against the compound concentration and the data is fitted to a one-site competition model to yield IC50 of the compound.
# [2] = tested on: IL-17A-induced G-CSF production in human normal keratinocytes (NHK); assay: NHK Assay: IL-17A-induced G-CSF production in human normal keratinocytes; format: cell-based; conditions: IL-17A 5 ng/mL, 24 h, 5% FBS, simple average if tested more than once
# Experimental: IL-17A acts directly on keratinocytes through binding to dimeric receptor IL-17RA/RC and drives the production of a number of inflammatory mediators known to be elevated in psoriasis lesional tissue. IL-17A small molecule inhibitors that block the IL-17A to interact with IL-17R would inhibit the IL-17A signaling in its targeted cells such as keratinocytes. The compound functional activity is evaluated for its impact on IL-17A-induced G-CSF production in human normal keratinocytes (NHK).
# Adult normal human keratinocytes are cultured in keratinocyte growth medium (Lonza) in a flask till reaching ˜ 90% confluence, then cells are transferred to a 384-well plate at density of 3000-4000 cell/well. Recombinant human IL-17A (Gibco PHC9174) is pre-incubated with titrated compound or DMSO for 1 h at rt then added to the cell culture plate. The final concentration of IL-17A is 5 ng/mL and DMSO is 0.2%, in the culture containing 5% FBS. Cells are cultured/treated for 24 h at 37° C. Supernatants are collected and G-CSF production is measured through HTRF technology using Human G-CSF Kit (CisBio). G-CSF concentration was extrapolated from the standard curve and IC50 is determined using GraphPad Prism. Cell viability is also evaluated using CellTiter-Glo kit (Promega) and effect of compound on cell viability is compared to DMSO control.
# UniProt Q16552, sequence (Q16552 with tags, fused parts or gaps K93Q): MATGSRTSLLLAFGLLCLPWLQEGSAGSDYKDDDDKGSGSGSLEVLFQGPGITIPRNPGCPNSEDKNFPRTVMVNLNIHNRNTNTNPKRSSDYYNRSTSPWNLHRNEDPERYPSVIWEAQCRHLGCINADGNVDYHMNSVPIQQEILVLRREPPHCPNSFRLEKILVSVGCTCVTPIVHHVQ
Structure (SMILES),IC50 [1],IC50 [2],"IC50 ([2]; Homo sapiens, Keratinocyte)"
"CC(CC(=O)N[C@H](c1ccn2cc([C@@H](NC(=O)c3conc3CCC(F)(F)F)C3CCC(F)(F)CC3)nc2n1)C1CC1)C(F)(F)F (single isomer, unassigned) [Example 7, N—((S)-(7-((S)-Cyclopropyl((S*)-4,4,4-trifluoro-3-methylbutanamido)methyl)imidazo[1,2-a]pyrimidin-2-yl)(4,4-difluorocyclohexyl)methyl)-3-(3,3,3-trifluoropropyl)isoxazole-4-carboxamide]",520 nM,880 nM,–
"CC(CC(=O)N[C@H](c1ccn2cc([C@@H](NC(=O)c3conc3CCC(F)(F)F)C3CCC(F)(F)CC3)nc2n1)C1CC1)C(F)(F)F (single isomer, unassigned) [Example 8, N—((S)-(7-((S)-Cyclopropyl((R*)-4,4,4-trifluoro-3-methylbutanamido)methyl)imidazo[1,2-a]pyrimidin-2-yl)(4,4-difluorocyclohexyl)methyl)-3-(3,3,3-trifluoropropyl)isoxazole-4-carboxamide]",1100 nM,6000 nM,–
"CC(CC(=O)N[C@H](c1ccn2cc([C@@H](NC(=O)c3conc3C3CC3)C3CCC(F)(F)CC3)nc2n1)C1CC1)C(F)(F)F (single isomer, unassigned) [Example 9, 3-Cyclopropyl-N—((S)-(7-((S)-cyclopropyl((S*)-4,4,4-trifluoro-3-methylbutanamido)methyl)imidazo[1,2-a]pyrimidin-2-yl)(4,4-difluorocyclohexyl)methyl)isoxazole-4-carboxamide]",1800 nM,610 nM,–
"CC(CC(=O)N[C@H](c1ccn2cc([C@@H](NC(=O)c3conc3C3CC3)C3CCC(F)(F)CC3)nc2n1)C1CC1)C(F)(F)F (single isomer, unassigned) [Example 10, 3-Cyclopropyl-N—((S)-(7-((S)-cyclopropyl((R*)-4,4,4-trifluoro-3-methylbutanamido)methyl)imidazo[1,2-a]pyrimidin-2-yl)(4,4-difluorocyclohexyl)methyl)isoxazole-4-carboxamide]",4100 nM,5800 nM,–
"CC(C)n1ncnc1C(=O)N[C@H](c1cn2ccc([C@H](NC(=O)CC(C)C(F)(F)F)C3CC3)nc2n1)C1CCC(F)(F)CC1 (single isomer, unassigned) [Example 17, N—((S)-(7-((R)-Cyclopropyl((S*)-4,4,4-trifluoro-3-methylbutanamido)methyl)imidazo[1,2-a]pyrimidin-2-yl)(4,4-difluorocyclohexyl)methyl)-1-isopropyl-1H-1,2,4-triazole-5-carboxamide]",220 nM,–,1100 nM
"CC(C)n1ncnc1C(=O)N[C@H](c1cn2ccc([C@H](NC(=O)CC(C)C(F)(F)F)C3CC3)nc2n1)C1CCC(F)(F)CC1 (single isomer, unassigned) [Example 18, N—((S)-(7-((R)-Cyclopropyl((R*)-4,4,4-trifluoro-3-methylbutanamido)methyl)imidazo[1,2-a]pyrimidin-2-yl)(4,4-difluorocyclohexyl)methyl)-1-isopropyl-1H-1,2,4-triazole-5-carboxamide]",580 nM,2000 nM,–
"CC(CC(=O)N[C@@H](c1ccn2cc([C@@H](NC(=O)c3ncnn3CC3CC3)C3CCC(F)(F)CC3)nc2n1)C1CC1)C(F)(F)F (single isomer, unassigned) [Example 19, N—((S)-(7-((R)-Cyclopropyl((S*)-4,4,4-trifluoro-3-methylbutanamido)methyl)imidazo[1,2-a]pyrimidin-2-yl)(4,4-difluorocyclohexyl)methyl)-1-(cyclopropylmethyl)-1H-1,2,4-triazole-5-carboxamide]",260 nM,1200 nM,–
"CC(CC(=O)N[C@@H](c1ccn2cc([C@@H](NC(=O)c3ncnn3CC3CC3)C3CCC(F)(F)CC3)nc2n1)C1CC1)C(F)(F)F (single isomer, unassigned) [Example 20, N—((S)-(7-((R)-Cyclopropyl((R*)-4,4,4-trifluoro-3-methylbutanamido)methyl)imidazo[1,2-a]pyrimidin-2-yl)(4,4-difluorocyclohexyl)methyl)-1-(cyclopropylmethyl)-1H-1,2,4-triazole-5-carboxamide]",470 nM,2800 nM,–
"Cc1c(C(=O)N[C@H](c2cn3ccc(C(NC(=O)CCC(F)(F)F)C4CC4)nc3n2)C2CCC(F)(F)CC2)cnn1CCC(F)(F)F (single isomer, unassigned) [Example 38, N—((S)-(7-((S*)-Cyclopropyl(4,4,4-trifluorobutanamido)methyl)imidazo[1,2-a]pyrimidin-2-yl)(4,4-difluorocyclohexyl)methyl)-5-methyl-1-(3,3,3-trifluoropropyl)-1H-pyrazole-4-carboxamide]",890 nM,930 nM,–
"Cc1c(C(=O)N[C@H](c2cn3ccc(C(NC(=O)CCC(F)(F)F)C4CC4)nc3n2)C2CCC(F)(F)CC2)cnn1CCC(F)(F)F (single isomer, unassigned) [Example 39, N—((S)-(7-((R*)-Cyclopropyl(4,4,4-trifluorobutanamido)methyl)imidazo[1,2-a]pyrimidin-2-yl)(4,4-difluorocyclohexyl)methyl)-5-methyl-1-(3,3,3-trifluoropropyl)-1H-pyrazole-4-carboxamide]",13000 nM,~20000 nM,–
"O=C(CCC(F)(F)F)NC(c1ccn2cc([C@@H](NC(=O)c3cnn(CCC(F)(F)F)n3)C3CCC(F)(F)CC3)nc2n1)C1CC1 (single isomer, unassigned) [Example 40, N—((S)-(7-((S*)-Cyclopropyl(4,4,4-trifluorobutanamido)methyl)imidazo[1,2-a]pyrimidin-2-yl)(4,4-difluorocyclohexyl)methyl)-2-(3,3,3-trifluoropropyl)-2H-1,2,3-triazole-4-carboxamide]",310 nM,360 nM,–
"O=C(CCC(F)(F)F)NC(c1ccn2cc([C@@H](NC(=O)c3cnn(CCC(F)(F)F)n3)C3CCC(F)(F)CC3)nc2n1)C1CC1 (single isomer, unassigned) [Example 41, N—((S)-(7-((R*)-Cyclopropyl(4,4,4-trifluorobutanamido)methyl)imidazo[1,2-a]pyrimidin-2-yl)(4,4-difluorocyclohexyl)methyl)-2-(3,3,3-trifluoropropyl)-2H-1,2,3-triazole-4-carboxamide]",2400 nM,2500 nM,–
"O=C(CCC(F)(F)F)NC(c1ccn2cc([C@@H](NC(=O)c3ccn(CCC(F)(F)F)n3)C3CCC(F)(F)CC3)nc2n1)C1CC1 (single isomer, unassigned) [Example 42, N—((S)-(7-((S*)-Cyclopropyl(4,4,4-trifluorobutanamido)methyl)imidazo[1,2-a]pyrimidin-2-yl)(4,4-difluorocyclohexyl)methyl)-1-(3,3,3-trifluoropropyl)-1H-pyrazole-3-carboxamide]",480 nM,520 nM,–
"O=C(CCC(F)(F)F)NC(c1ccn2cc([C@@H](NC(=O)c3ccn(CCC(F)(F)F)n3)C3CCC(F)(F)CC3)nc2n1)C1CC1 (single isomer, unassigned) [Example 43, N—((S)-(7-((R*)-Cyclopropyl(4,4,4-trifluorobutanamido)methyl)imidazo[1,2-a]pyrimidin-2-yl)(4,4-difluorocyclohexyl)methyl)-1-(3,3,3-trifluoropropyl)-1H-pyrazole-3-carboxamide]",5700 nM,~20000 nM,–
